The source of these data is US5463030A, “Metal chelating agents for medical application” (Research Foundation of the State of New York, priority 1994, dated 1995).

Read-outs that look alike come from different tables or passages of the source.

For series [1] the following is noted: mouse, in vivo; for % dosage, Urine: iv.
Method: Groups of four mice were individually injected in the tail vein with 20 μM/Kg of body weight (10-20 μCi) of Gd-153 labeled DTPA-bis (2,6-dimethylaniline). Each group of mice was sacrificed at intervals of 1,3 and 24 hours. The blood was collected from the heart just before the animals were sacrificed and the animals were dissected and individual organs were assayed.
For series [2] the following is noted: rat, in vivo, 0 min.
For series [3] the following is noted: in vivo; cited from earlier work.
Series [4] can be described thus: Osmotic pressure of Gd-DTPA bis pyridoxylamine solution. The series is classed as physicochemical. The note with it: 0.144 moles/liter solution; pH 7.08. Here is the method:
0.50 g of the DTPA-bis pyridoxylamine synthesized in Example 4 was reacted with 0.15 g of Gd(OH)3 and 3.6 ml of water. The pH of the mixture was adjusted to 7.51 with sodium hydroxide. The mixture was then heated in an oil bath at a temperature of about 90° C. for about 45 minutes. The mixture was cooled and the pH adjusted to 7.08 with sodium hydroxide. 5.0 ml of the product was recovered. The concentration of the resulting Gd-DTPA bis pyridoxylamine was determined to be 0.144 moles/liter with an osmotic pressure of 646 m Os moles/liter.

The conditions of series [5]: MRI; cited from earlier work.
The conditions of series [6]: cited from earlier work.

As to `Cc1cccc(C)c1NC(=O)CN(CCN(CCN(CC(=O)[O-])CC(=O)Nc1c(C)cccc1C)CC(=O)[O-])CC(=O)[O-].[153Gd+3]` [Gadolinium III chelate of DTPA-bis (2,6-dimethylaniline)], in series [1] (60 min), the “% dosage, Blood” value is on record as “.4441 % DOSAGE”; the “% dosage, Bone” value is given as “.1489 % DOSAGE”; the “% dosage, Large Intestine” value was “.0781 % DOSAGE”; the “% dosage, Left Kidney” value was “.7115 % DOSAGE”. Also, in series [1] (60 min), the “% dosage, Liver” value amounted to 22.95 % DOSAGE; the “% dosage, Lungs” value is reported as “.0326 % DOSAGE”; the “% dosage, Muscle” value is “.6207 % DOSAGE”; the “% dosage, Right Kidney” value is “.6676 % DOSAGE”. In series [1] (60 min), the “% dosage, Small Intestine” value stood at 36.08 % DOSAGE; the “% dosage, Spleen” value is listed as “.0214 % DOSAGE”; the “% dosage, Stomach” value was “.2113 % DOSAGE”. Further, in series [1] (180 min), the “% dosage, Blood” value is on record as “.0188 % DOSAGE”; the “% dosage, Bone” value is listed as “.0678 % DOSAGE”; the “% dosage, Large Intestine” value is reported as 1.471 % DOSAGE; the “% dosage, Left Kidney” value is recorded as “.4528 % DOSAGE”. Moreover, in series [1] (180 min), the “% dosage, Liver” value is on record as 2.805 % DOSAGE; the “% dosage, Lungs” value is reported as “.0075 % DOSAGE”; the “% dosage, Muscle” value is recorded as “.6183 % DOSAGE”; the “% dosage, Right Kidney” value was “.5235 % DOSAGE”. Besides, in series [1] (180 min), the “% dosage, Small Intestine” value came out at 52.10 % DOSAGE; the “% dosage, Spleen” value is given as “.0096 % DOSAGE”; the “% dosage, Stomach” value is recorded as “.1254 % DOSAGE”. Further, in series [1] (1440 min), the “% dosage, Blood” value is “.0038 % DOSAGE”; the “% dosage, Bone” value was “.1551 % DOSAGE”; the “% dosage, Large Intestine” value is “.5091 % DOSAGE”; the “% dosage, Left Kidney” value was “.1050 % DOSAGE”. Also, in series [1] (1440 min), the “% dosage, Liver” value was 1.659 % DOSAGE; the “% dosage, Lungs” value is “.0085 % DOSAGE”; the “% dosage, Muscle” value is “.0861 % DOSAGE”; the “% dosage, Right Kidney” value is reported as “.1102 % DOSAGE”. Moreover, in series [1] (1440 min), the “% dosage, Small Intestine” value is “.1533 % DOSAGE”; the “% dosage, Spleen” value is given as “.0042 % DOSAGE”; the “% dosage, Stomach” value is “.0468 % DOSAGE”. Further, in series [1] (1 h), the “% dosage, Urine” value is listed as 26.30 % DOSAGE. In addition, in series [1] (3 h), the “% dosage, Urine” value was found to be 32.13 % DOSAGE. Besides, the “% Retained, whole body” value in series [2] stood at 100%.
As for `O=C([O-])CN(CCN(CC(=O)[O-])CC(=O)[O-])CCN(CC(=O)[O-])C(COCc1ccccc1)C(=O)[O-].[Gd+3]` (stereo not drawn) [Gd-BOPTA, gadolinium-benzyloxyproprionyl tetracetate], the “liver concentration of injected dose” value in series [3] is 37%.
As for `Cc1ncc(CO)c(CNC(=O)CN(CCN(CCN(CC(=O)[O-])CC(=O)NCc2c(CO)cnc(C)c2O)CC(=O)[O-])CC(=O)[O-])c1O.[Gd+3]` [Gd-DTPA bis pyridoxylamine, Gadolinium III chelate of DTPA-bis pyridoxylamide], the osmotic pressure in series [4] was found to be 646 m Os moles/liter.
As for `O=C([O-])CN(CCN(CC(=O)[O-])CC(=O)O)CCN(CC(=O)[O-])CC(=O)O.[Gd+3]` [Gd-DTPA, gadolinium-diethylene triamino pentaacetic acid], the “blood clearance and excretion” value in series [3] is “rapid clearance from the blood and subsequent prompt renal excretion”.
For the molecule “gadolinium-hepatic iminodiacetic acid [Gd-HIDA]”, in series [5], the “image enhancement of the gall bladder” value is “failed to enhance the image of the gall bladder” and the “image enhancement of the liver” value was “only faintly enhanced images of the liver”. Also, the in vivo stability result in series [6] is “unstable in vivo”.
